Reference: US9403830B2, “Inhibitors of leukotriene production” (Boehringer Ingelheim International GmbH, priority 2012, dated 2016)

What was measured:
human LTA4 hydrolase = target: T1, human LTA4 hydrolase (Homo sapiens, UniProt P09960); test: LTA4H Enzyme assay (peptidase, Arg-AMC cleavage); format: biochemical; settings: LTA4H enzyme 1 nM, Arg-AMC substrate 50 μM, room temperature 1 h, fluorescence 380/460 nm
T1 sequence (P09960 1-611): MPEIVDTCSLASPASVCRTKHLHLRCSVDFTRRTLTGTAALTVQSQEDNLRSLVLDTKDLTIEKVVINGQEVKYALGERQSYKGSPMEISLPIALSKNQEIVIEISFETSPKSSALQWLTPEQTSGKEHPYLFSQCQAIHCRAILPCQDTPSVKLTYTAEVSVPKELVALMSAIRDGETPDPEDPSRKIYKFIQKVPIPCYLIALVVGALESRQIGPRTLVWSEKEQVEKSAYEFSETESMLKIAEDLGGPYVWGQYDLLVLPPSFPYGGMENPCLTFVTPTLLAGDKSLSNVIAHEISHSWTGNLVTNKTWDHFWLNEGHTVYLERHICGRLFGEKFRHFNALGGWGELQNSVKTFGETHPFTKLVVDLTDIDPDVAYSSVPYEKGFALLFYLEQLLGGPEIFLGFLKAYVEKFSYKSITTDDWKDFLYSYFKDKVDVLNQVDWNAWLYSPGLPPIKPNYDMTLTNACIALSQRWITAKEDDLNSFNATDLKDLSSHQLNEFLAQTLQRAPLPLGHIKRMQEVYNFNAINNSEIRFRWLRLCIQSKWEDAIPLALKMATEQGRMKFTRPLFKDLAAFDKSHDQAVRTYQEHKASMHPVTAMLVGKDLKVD
How it was run: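 Human LTA4H (1 nM final) incubated with compound and Arg-AMC (50 μM final) in 50 mM Tris-HCl pH 7.5, 100 mM KCl, 0.5% BSA, 1 h at room temperature. Product read as AMC fluorescence (ex 380/em 460 nm); IC50 reported.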

[1] = tested on: LTB4 synthesis in human whole blood; test: human whole blood (HWB) assay, inhibition of LTB4 production; format: cell-based; settings: heparinized human whole blood, calcimycin 20 μM stimulation, plasma LTB4
How it was run: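 Plasma LTB4, quantified by HTRF immunoassay, is the read-out after calcimycin challenge (20 μM final, 30 min, 37 °C) of heparinized whole blood that had been pretreated with compound for 15 min at 37 °C; values given as IC50.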

Structure (SMILES)	IC50 (human LTA4 hydrolase) [nM]	IC50 [1] [nM]
O=C(CNCc1ccc2cc(Oc3ccc(-c4ccn[nH]4)cn3)ccc2n1)N1CCCC1 [Example 45, 2-({6-[5-(2H-Pyrazol-3-yl)-pyridin-2-yloxy]-quinolin-2-ylmethyl}-amino)-1-pyrrolidin-1-yl-ethanone]	2.8	420
O=C1CC[C@@H](OCc2cn3cc(Oc4ccc(-c5ccn[nH]5)cc4)ccc3n2)CN1 [Example 260, (R)-5-{6-[4-(2H-Pyrazol-3-yl)-phenoxy]-imidazo[1,2-a]pyridin-2-ylmethoxy}-piperidin-2-one]	5.3	2200
CC(=O)N[C@@H]1C[C@H]2CC[C@@H](C1)N2Cc1ccc2cc(Oc3ccc(-c4cc[nH]n4)cn3)ccc2n1 [Example 239, N-((exo)-8-{6-[5-(1H-Pyrazol-3-yl)-pyridin-2-yloxy]-quinolin-2-ylmethyl}-8-aza-bicyclo[3.2.1]oct-3-yl)-acetamide]	0.43	260

The remaining lines, values ahead:

IC50 (human LTA4 hydrolase) [nM]	IC50 [1] [nM]	Structure (SMILES)
0.36	330	c1cncc(Cc2nc3cc(Oc4ccc(-c5ccn[nH]5)cc4)ccc3[nH]2)c1 [Example 73, 5-[4-(2H-Pyrazol-3-yl)-phenoxy]-2-pyridin-3-ylmethyl-1H-benzoimidazole]
0.93	200	O=C(CO)N1CCCN(Cc2ccc3cc(Oc4ccc(-c5ccn[nH]5)cn4)ccc3n2)CC1 [Example 140, 2-Hydroxy-1-(4-{6-[5-(2H-pyrazol-3-yl)-pyridin-2-yloxy]-quinolin-2-ylmethyl}-[1,4]diazepan-1-yl)-ethanone]
0.24	120	CN(Cc1nc2cc(Oc3ccc(-c4ccn[nH]4)cc3)ccc2[nH]1)CC1CCCO1 (centres unmarked) [Example 85, Methyl-{5-[4-(2H-pyrazol-3-yl)-phenoxy]-1H-benzoimidazol-2-ylmethyl}-(tetrahydro-furan-2-ylmethyl)-amine]
0.49	220	NC(=O)[C@H]1[C@@H]2CN(Cc3ccc4cc(Oc5ccc(-c6ccn[nH]6)cn5)ccc4n3)C[C@@H]21 [Example 35, (1α,5α,6α)-3-{6-[5-(2H-Pyrazol-3-yl)-pyridin-2-yloxy]-quinolin-2-ylmethyl}-3-aza-bicyclo[3.1.0]hexane-6-carboxylic acid amide]
